The subject of one data set is XA binding sites. Description: Displacement of [3H]XA specific binding by competitors. Further details: species or system rat. The following applies: for displacement of radioactive XA specific binding: compound at 200 µM, displacement by 200 µM XA set at 100%. On the procedure:
Membranes (from brain or cell cultures) were incubated for 30 min at 0°C in 50 mM Pipes buffer, pH 7.4 in the presence of [^3H]-XA (2 µCi per µmole total XA at various concentrations). Non-specific binding was determined with 1 mM non-radioactive XA in the medium. Bound from free ligand was separated by rapid filtration on 25 mm Whatman GF/B filters and washing with incubation buffer (3×3 ml at 0°C). Radioactivity on filters was measured by liquid scintillation counting.
Two approaches were used for screening the pharmacological properties of XA specific binding. First, we tested at rather high concentration (200 µM) a battery of putative ligands for these sites. […] The fact that glutamate displaced not more than 10% of radioactive XA eliminates possible binding of XA on glutamate receptors under our conditions.
A general note: Displacement assays read how much labelled ligand stays bound in the presence of the test substance.

Data set [1] has as its system XA binding sites on crude synaptosomal membranes from rat brain. Description: [3H]-XA saturation and kinetic binding on crude synaptosomal membranes from rat brain. As for the experimental part:
Brains were rapidly extracted from adult male Wistar rats killed by decapitation after being stunned. All the following procedures were done with buffers cooled at 0°C. Brains were homogenized with a motor driven Teflon/glass apparatus in 10 vol (W/V) of sucrose 0.32 M containing potassium phosphate buffer pH 7.2 and 2 mM EDTA. After centrifugation at 1,500 g for 10 min to remove the crude nuclear fraction, the supernatant was spun at 35,000 g for 20 min. The pellet obtained was resuspended in lysis buffer (2 mM EDTA/water pH 6.0 at 0°C, spun at 100,000 g for 20 min). After washing the pellet with potassium phosphate buffer 50 mM, pH 6.0, the crude membrane fraction was directly used for further experiments or stored at −80°C.
(§1) Bound from free ligand was separated by rapid filtration on 25 mm Whatman GF/B filters and washing with incubation buffer (3×3 ml at 0°C). Radioactivity on filters was measured by liquid scintillation counting.

The subject of data set [2] is differentiated NCB-20 cells. The data set can be described thus: cells. On the procedure:
(§2) NCB-20 cells were plated at low density (10^4 cells/dish) in 35-mm dishes and differentiated with 1 mM db-cAMP. The culture medium was replaced twice a week and the cells were used after 5 days in culture. Cells were recorded either in cell-attached or whole-cell configuration of the patch-clamp technique using an Axopatch-B200 amplifier (Axon Instruments, CA, USA) in its voltage-clamp mode. […] Junction potentials were calculated using the routine procedure in the Clampex software (Axon instruments, CA, USA) and taken into account for current-voltage (I–V) relationships and reversal potential calculation according to the recording configuration.
(§3) Data were analyzed offline using the clampfit routine of the Pclamp software package. The given results are means±SEM and statistical significance of the difference between means was determined using one way ANOVA followed by Dunnett's Multiple Comparison test.

A further data set deals with NCB-20 cells. The data set can be described thus: Fluo-4 monitoring of [Ca2+]i changes. The data set is classed as cell-based, mouse neuroblastoma / Chinese hamster brain cell hybrid. As for the experimental part:
The method of cellular calcium measurement used was as described previously. Briefly, NCB-20 cells were plated in glass-bottomed culture dishes and incubated at 37°C for four days. […] Then the cells were washed with Krebs for 30 min at room temperature in the dark. All settings of the laser (Argon-Krypton laser, turned to 488 nm), optical filter (BF 530/30) and microscope (Leica TCS-SP confocal inverted microscope) as well as data acquisition were controlled by the LCS (Leica Confocal System) software.
Images were recorded at a frequency of 0.1 Hz. Analysis was performed by defining regions of interest (ROI) in the first image. Values are expressed as the percentage of fluorescence change with respect to control and calculated as F/F 0 (%) (where F is the fluorescence intensity at a given time and F 0 the basal fluorescence intensity at the beginning of the experiment).
The cells were continuously superfused with normal Krebs medium and transiently submitted to the tested drug using a peristaltic pump with a flow rate of 1 ml/min. For each analyzed cell, the mean and the standard deviation (SD) of the F/F 0 of fluorescence were measured during 1–2 min before (base line) and after (signal) drug application and compared. Statistical significance of the difference between means was determined using one way ANOVA followed by Dunnett's Multiple Comparison Test for repeated measurements on absolute levels of fluo-4 fluorescence.

The conditions of data set [3]: peripheral administration; cited from earlier work.
Another data set deals with various cell cultures. The following applies: concentration of 10 µM; cited from earlier work.
In data set [4] the test system is XA binding sites on IMR-32 neuroblastoma cells. The data set can be described thus: [3H]-XA saturation binding on IMR-32 neuroblastoma cell membranes. Set-up: species or system human. The note with it: IMR-32 membranes, read-out: dissociation constant (Kd). On the procedure: Cultures were maintained for one week at 37°C in the presence of CO2 (5%).
(§4) Neurons were scraped into potassium phosphate buffer 50 mM, EDTA 2 mM, pH 6.0 at 0°C. After centrifugation at 2,000 g for 3 min to eliminate nuclei and large fragments, the supernatant was spun down at 15,000 g for 10 min; the pellet was washed with the same buffer and directly used for binding experiments.
as §1

The test system of data set [5] is 75 transmembrane and soluble receptors, ion channels and monoamine transporters. The data set can be described thus: Cerep high-throughput profile screening. Format: binding. The note with it: XA at 10 µM. As for the experimental part:
Secondly, to extend the pharmacological profile of XA, this compound was tested on high-throughput profile screening which involved a collection of 75 transmembrane and soluble receptors, ion channels and monoamine transporters (Cerep, France Laboratories, Poitiers). XA was tested on these collections of proteins at 10 µM concentration.

The test system of data set [6] is rat brain synaptosomal membranes. The following applies: read-out: EC50 of GTP-γ-S binding; XA 0.5 to 50 µM, 5 µM GDP, 20 mM MgCl2. On the procedure:
The Scintillation Proximity Assay (SPA) of Amersham was used. […] Brain synaptosomal membranes were thus incubated in assay buffer (pH 7.4) containing 20 mM HEPES, 100 mM NaCl, 20 mM MgCl2 with 0.3 nM [^35S]GTP-γ-S and 5 µM GDP for 30 min at room temperature. Non-specific binding was determined in the presence of 200 µM GTP. WGA SPA beads were added and the mixture was incubated at room temperature for a further 30 min. The plates were centrifuged at 1,200 g for 5 min and SPA cpm were determined by scintillation counting.
On the technique in general: GTPγS resists hydrolysis and so accumulates on activated G proteins.

Data set [7] relates to differentiated NCB-20 cells. The data set can be described thus: Cell-attached patch-clamp recording. The data set is classed as cell-based, mouse neuroblastoma / Chinese hamster brain cell hybrid. On the procedure: as §2
For cell-attached recording the pipette was filled with a medium containing (in mM): N-Methyl-D-Glucamine (NMDG) chloride 140, KCl 1, MgCl2 10, EGTA 5, TEA-Cl 15, HEPES 10, pH = 7.4. To maintain the cell membrane potential close to zero, the recorded cells were continuously superfused with a bath solution containing (in mM): KCl 140, NaCl 1, MgCl2 1, CaCl2 0.5, EGTA-K 1, HEPES 10, D-glucose 10, pH = 7.4. […] Drugs were dissolved in DMSO and diluted in control solutions such that DMSO in the applied solution was diluted by a factor of at least 10^4. Drugs were applied to the recorded cells through a multi-barrel perfusion system, the rapid solution exchanger RCS-160 (Bio-Logic, Grenoble, France). […] The first tube was filled with control solution and was used to maintain a continuous superfusion of the recorded cell between applications. The selected tube was placed in front of the cell by axial rotation of calibrated angles and the application started when the selected tube takes place in front of the cell.
as §3

For data set [8], the system named is XA binding sites on NCB-20 neuroblastoma cells. Description: [3H]-XA saturation binding on NCB-20 neuroblastoma cell membranes. The note with it: NCB-20 membranes, read-out: dissociation constant (Kd). Further details: species or system mouse neuroblastoma / Chinese hamster brain cell hybrid. On the procedure: as §4, §1
The mark [9] stands for this setting: frequency histogram of the illustrated XA response.
The mark [10] stands for this setting: illustrated response to 10 µM XA, NMDG-Cl pipette, ramp protocol.

Like-named read-outs stand apart in the source and are kept apart here.

Data on eight molecules can be found in PMC3491036 (PLoS ONE, 2012).

As for `NCCCC(=O)O` [GABA], the “displacement of radioactive XA specific binding” value (from here on “displacement”) in the data set on XA binding sites is reported as “very low potency”.

As usually defined, the Kd is a measure of binding affinity in units of concentration. As a reminder, the Hill coefficient is the slope factor of the fitted curve. By EC50 is commonly meant the concentration that produces a half-maximal response. For orientation: IC50 means the concentration needed to halve the response being measured. Low values mean greater potency, high ones weaker potency. Consider `O=C(O)c1cc(O)c2cccc(O)c2n1` [XA, Xanthurenic acid], for which the Kob in [1] ([3H]-XA 0.2 µM, pH 7.4, 0°C) came to 1.44 min⁻¹. Besides, the Kd in data set [1] (from Kob and Koff, read-out: calculated Kd (from rate constants)) is 1.4 µM. For the same molecule, the Kd in [1] (saturation experiments, crude brain synaptosomal membranes, pH 7.4, 0°C, read-out: dissociation constant (Kd)) was determined as 0.74 µM. In [2] (Hill fit of dose-response), this molecule returned a Hill coefficient of 3.5 and a maximal conductance of 12.5 nS. Also, the “cells tested showing an XA induced response” value in [2] (XA 1 to 30 µM, whole-cell) is listed as “about 71%”. In addition, the “reversal potential of XA-induced current” value in data set [2] (high chloride pipette medium) was −3.3±4.0 mV. The “reversal potential of XA-induced current” value in data set [2] (low chloride pipette medium) is listed as −3.8±2.5 mV. For the same molecule, the EC50 in data set [2] (read-out: EC50 of XA activated conductance) was found to be 11.7 ± 2.2 µM. This molecule also had an IC50 at XA binding sites of 0.3 µM. Besides, in the data set on NCB-20 cells (10 µM XA), the “persistence of signal before returning to basal levels” value was “about 5 min” and the “start of signal after XA application” value is listed as “about 1 min”. The “intensity of fluo-4 signal above basal levels” value in the data set with NCB-20 cells (10 µM XA, 6 min application) is recorded as 60–80%. Further, the “fluo-4 fluorescence (F/F0)” value in the data set on NCB-20 cells (25 µM XA after 5 min washout of NCS-486) is 134.9±6.5%. Also, the “mean apparent maximum of the response (F/F0)” value in the data set on NCB-20 cells (XA 1 to 10 µM) is given as “about 157±3%”. Further, the EC50 in the data set on NCB-20 cells (read-out: EC50 of first (activation) phase of Ca2+ response) turned out to be 1.4 µM. In addition, the brain penetration result in data set [3] is “penetrates the brain freely”. The “toxicity in cell cultures” value with various cell cultures was “apoptotic-like cell death”. Also, the Kd in data set [4] was 0.75 µM. For the same molecule, in data set [5], the “competition on the binding of specific ligands of the 75 proteins” value is reported as “No significant competitive properties”; the “effect on adenosine, benzodiazepine, dopamine, GABA, canabinoid, histamine, muscarinic, opioid, purinergic and serotonin receptors” value is “no effect”. For the same molecule, the EC50 in data set [6] came out at 2 ± 1.9 µM. For the same molecule, in data set [7] (all XA responses, mean ± SEM), the “Er1, global mean value” is recorded as −32.2±4.0 mV; the “Er2, global mean value” was −13.9±1.1 mV; the “Er3, global mean value” is −1.0±0.6 mV; the “Er4, global mean value” is given as 11.5±0.8 mV. Besides, in data set [7] (all XA responses, mean ± SEM), the “Er5, global mean value” worked out at 31.1±2.0 mV. For the same molecule, in data set [7] (setting [9]), the “Er1, mean of Gaussian fit” value is reported as −23.2 mV; the “Er2, mean of Gaussian fit” value is reported as −9.6 mV; the “Er3, mean of Gaussian fit” value is 0.8 mV; the “Er4, mean of Gaussian fit” value amounted to 12.6 mV. Moreover, the “Er5, mean of Gaussian fit” value in data set [7] (setting [9]) was 20.3 mV. For the same molecule, in data set [7] (setting [10]), the “reversal potential (Er), position 1 (initial value)” value is reported as −9 mV; the “reversal potential (Er), position 2” value was “about 14 mV”; the “reversal potential (Er), position 3” value is listed as about 25 mV; the “reversal potential (Er), position 4” value is about −1 mV. For the same molecule, in [7] (setting [10]), the “reversal potential (Er), position 5” value is reported as about −26 mV. Moreover, the Kd in data set [8] was found to be 1.3 µM.

The molecule `O=C(O)c1cc(O)c2c(Cl)cc(Cl)c(O)c2n1` [NCS-482] displayed an IC50 at XA binding sites of 0.35 µM. Besides, in [7], the “functional properties in patch-clamp experiments” value (shortened to “functional properties”) is reported as “agonistic”.

Consider `Nc1cccc2c(O)cc(C(=O)O)nc12` [NCS-486], for which, on XA binding sites, the IC50 came to 14.6 µM. Further, the “fluo-4 fluorescence (F/F0)” value stood at 83.9±2.7% in the data set with NCB-20 cells (100 µM NCS-486 applied alone, 5 min) and 86.9±0.7% with NCB-20 cells (100 µM NCS-486 with 25 µM XA, 5 min). The “functional properties” value in data set [7] is on record as “antagonistic”. Also, the “reduction of the agonist-induced current-response” value in [7] (NCS-486 20 µM co-applied with 5 µM XT-21) was determined as 86.1±5.0%; in data set [7] (NCS-486 20 µM co-applied with 10 µM XA), 88.3±3.8%; in data set [7] (NCS-486 20 µM co-applied with 18 µM NCS-482) it was 88.7±3.2%. In addition, the “effect when applied alone” value in data set [7] (NCS-486 20 µM, 6 cells tested) was “did not have any effect by itself”.

For `O=C(O)c1cccnc1C(=O)O` [quinolinic acid], in the data set on XA binding sites, the “displacement” value is 40%.

As for `O=C(O)c1cc(O)c2cc(-c3ccccc3)cc(O)c2n1` [XT-21], the IC50 on XA binding sites worked out at 4.6 µM. The “functional properties” value in data set [7] was “agonistic”. For the same molecule, in data set [7] (XT-21 5 µM, cell-attached), the “response amplitude relative to 10 µM XA” value is listed as “about 2.5 fold” and the “response amplitude relative to 18 µM NCS-482” value is about 1.5 fold.

Turning to `O=C(O)c1cc(=O)c2ccccc2[nH]1` [kynurenic acid], in the data set on XA binding sites, the “displacement” value is 30%.

For `O=C(O)c1ccccn1` [picolinic acid], on XA binding sites, the IC50 was 41 ± 5 µM and the “displacement” value was found to be 60%.
